Consider one compound from patent US20100261639A1, “TRIAZOLE-BASED AMINOGLYCOSIDE-PEPTIDE CONJUGATES AND METHODS OF USE” (UNIVERSITY OF MANITOBA, priority 2007, published 2010).

In the assay the test system is S. aureus ATCC 29213. In words: MIC, macrobroth dilution, S. aureus ATCC 29213. In kind it is cell-based, Staphylococcus aureus. The following applies: visible growth after 24 h at 37° C. Here is the method: The microbiological activities of the neomycin-peptide conjugates and kanamycin-peptide conjugates against both American Type Culture Collection (ATCC) reference and clinical strains of Staphylococcus aureus, MRSA, Staphylococcus epidermidis, MRSE, Enterococcus faecalis, Enterococcus faecium, Streptococcus pneumoniae, E. coli, Pseudomonas aeruginosa, Stenotrophomonas maltophilia, Acinetobacter baumannii, and Klebsiella pneumoniae were assessed. Special focus was given to assess activity against multi-drug resistant strains of these pathogens. Antibiotic susceptibility testing was performed using the macrobroth dilution method as per Clinical Laboratory Standards Institute-CLSI (formerly National Committee for Clinical and Laboratory Standards-NCCLS) (Clinical and Laboratory Standards Institute, 2006). MIC values defined as the lowest concentration of antimicrobial agent which inhibited the development of visible growth after 24 h at 37° C.

Converted amounts (≈) assume the structure as drawn.

In the case of `NC[C@@H]1O[C@H](O[C@H]2[C@@H](O)[C@H](O[C@@H]3[C@@H](O)[C@H](N)C[C@H](N)[C@H]3O[C@H]3O[C@H](CN)[C@@H](O)[C@H](O)[C@H]3N)O[C@@H]2CO)[C@H](N)[C@@H](O)[C@@H]1O` [Neomycin B, neomycin B], the “minimal inhibitory concentration (MIC)” value was determined as 2 µg/mL (≈ 3.25 µM).
